Blank lines part the entries; values can stand above or below the molecule they belong to. The source made the active and inactive calls. The calls are words filed in the database; no cut-off is given here.
How the values were obtained:
MCF7 [1] = assay: Anticancer activity against human MCF7 cells assessed as cell growth inhibition incubated for 24 hrs by alamar blue assay; type: functional, cell-based; conditions: MCF7, 24 h
MDA-MB-231 [2] = assay: Anticancer activity against ERalpha negative human MDA-MB-231 cells assessed as cell growth inhibition incubated for 24 hrs by alamar blue assay; type: functional, cell-based; conditions: MDA-MB-231, 24 h
MDA-MB-231 [3] = assay: Anticancer activity against ERalpha negative human MDA-MB-231 cells assessed as cell growth inhibition incubated for 72 hrs by alamar blue assay; type: functional, cell-based; conditions: MDA-MB-231, 72 h
HCT-116 [4] = assay: Anticancer activity against ERalpha negative human HCT-116 cells assessed as cell growth inhibition incubated for 24 hrs by alamar blue assay; type: functional, cell-based; conditions: HCT-116, 24 h
HCT-116 [5] = assay: Anticancer activity against ERalpha negative human HCT-116 cells assessed as cell growth inhibition incubated for 72 hrs by alamar blue assay; type: functional, cell-based; conditions: HCT-116, 72 h
HT-29 [6] = assay: Anticancer activity against ERalpha negative human HT-29 cells assessed as cell growth inhibition incubated for 24 hrs by alamar blue assay; type: functional, cell-based; conditions: HT-29, 24 h
HT-29 [7] = assay: Anticancer activity against ERalpha negative human HT-29 cells assessed as cell growth inhibition incubated for 72 hrs by alamar blue assay; type: functional, cell-based; conditions: HT-29, 72 h
[8] = Selectivity ratio of IC50 for human MDA-MB-231 cells to IC50 for human MCF7 cells; type: functional
[9] = Selectivity ratio of IC50 for human HCT-116 cells to IC50 for human MCF7 cells; type: functional
[10] = Selectivity ratio of IC50 for human HT-29 cells to IC50 for human MCF7 cells; type: functional
[11] = Stability of the compound in simulated gastric fluid assessed as compound remaining measured after 120 mins by LC-MS/MS; type: ADME; conditions: read-out: Stability
MCF7 [12] = assay: Anticancer activity against ERalpha positive human MCF7 cells assessed as cell growth inhibition incubated for 72 hrs by alamar blue assay; type: functional, cell-based; conditions: MCF7, 72 h
T47D [13] = assay: Anticancer activity against human T47D cells harbouring ERalphaY537S mutant assessed as cell growth inhibition incubated for 24 hrs by alamar blue assay; type: functional, cell-based
T47D [14] = assay: Anticancer activity against human T47D cells harbouring ERalphaD538G mutant assessed as cell growth inhibition incubated for 24 hrs by alamar blue assay; type: functional, cell-based
MCF7 [15] = assay: Anticancer activity against human MCF7 cells assessed as reduction in cell viability incubated for 24 hrs in presence of 10% CD-FBS by alamar blue assay; type: functional, cell-based
T47D [16] = assay: Anticancer activity against ERalpha positive human T47D cells assessed as cell growth inhibition incubated for 24 hrs by alamar blue assay; type: functional, cell-based
MDA-MB-436 [17] = assay: Anticancer activity against ERalpha negative human MDA-MB-436 cells assessed as cell growth inhibition incubated for 24 hrs by alamar blue assay; type: functional, cell-based; conditions: MDA-MB-436, 24 h
MDA-MB-231 [18] = assay: Anticancer activity against ERalpha negative human MDA-MB-231 cells assessed as cell growth inhibition incubated for 168 hrs by alamar blue assay; type: functional, cell-based; conditions: MDA-MB-231, 168 h
MDA-MB-436 [19] = assay: Anticancer activity against ERalpha negative human MDA-MB-436 cells assessed as cell growth inhibition incubated for 72 hrs by alamar blue assay; type: functional, cell-based; conditions: MDA-MB-436, 72 h
HCT-116 [20] = assay: Induction of ER stress in human HCT-116 cells assessed as increase in phospho-EIF2alpha expression at 0.1 to 10 uM measured after 24 to 48 hrs by Western blot analysis; type: functional, cell-based; conditions: dose 0.1-10 µM, time 24-48 hrs
[21] = Cmax in CD-1 mouse at 20 mg/kg, iv by LC-MS/MS analysis; type: ADME, organism-based; set-up: dose 20 mg/kg, route iv; conditions: mouse, in vivo
[22] = Oral bioavailability in mouse; type: ADME, organism-based; conditions: in vivo
[23] = Half life in mouse; type: ADME, organism-based; conditions: in vivo
[24] = AUC in CD-1 mouse at 20 mg/kg, iv by LC-MS/MS analysis; type: ADME, organism-based; set-up: dose 20 mg/kg, route iv; conditions: mouse, in vivo
[25] = Half life in CD-1 mouse at 20 mg/kg, iv by LC-MS/MS analysis; type: ADME, organism-based; conditions: mouse, in vivo, iv, 20 mg/kg
[26] = MRT in CD-1 mouse at 20 mg/kg, iv by LC-MS/MS analysis; type: ADME, organism-based; conditions: mouse, in vivo, iv, 20 mg/kg
[27] = Volume of distribution at steady state in CD-1 mouse at 20 mg/kg, iv by LC-MS/MS analysis; type: ADME, organism-based; conditions: mouse, in vivo, iv, 20 mg/kg
[28] = Toxicity in po dosed CD-1 mouse assessed as maximum tolerated dose administered as single dose; type: organism-based; conditions: in vivo
[29] = Toxicity in iv dosed Sprague-Dawley rat assessed as maximum tolerated dose administered as single dose; type: organism-based; conditions: in vivo
MCF7 [30] = assay: Antitumor activity against human MCF7 cells xenografted in athymic nude mouse assessed as reduction in tumor growth at 5 mg/kg, iv administered once a week for three doses administered for 14 days; type: functional, organism-based; conditions: time 14.0 day
[31] = Toxicity in athymic nude mouse xenografted with human MCF7 cells assessed as change in body weight at 5 mg/kg, iv administered once a week for three doses administered for 14 days; type: organism-based; conditions: in vivo, 336 h, time 14 day
MCF7 [32] = assay: Anticancer activity against human MCF7 cells assessed as reduction in cell viability incubated for 24 hrs in presence of 10% CD-FBS and 17-beta-estradiol by alamar blue assay; type: functional, cell-based
HCT-116 [33] = assay: Induction of ER stress in human HCT-116 cells assessed as increase in ATF6alpha-p90 cleavage at 0.1 to 10 uM measured after 24 to 48 hrs by Western blot analysis; type: functional, cell-based; conditions: dose 0.1-10 µM, time 24-48 hrs

SMILES: O=C1Nc2c(C(F)(F)F)cccc2[C@@]1(c1ccc(O)cc1)C1CCC(F)(F)CC1
IC50 (MCF7 [1]): > 1 µM

SMILES: O=C1Nc2c(C(F)(F)F)cccc2C1(c1ccc(O)cc1)c1ccc(OC(F)(F)F)cc1 (configuration not stated)
IC50 (T47D [13]): 0.01 µM
IC50 (MCF7 [1]): 0.02 µM
IC50 (T47D [14]): 0.015 µM
Activity (MCF7 [15]): Active
IC50 (T47D [16]): 0.02 µM
IC50 (MDA-MB-436 [17]): 22 µM
IC50 (MDA-MB-231 [2]): 23 µM
IC50 (MDA-MB-231 [3]): 8 µM
IC50 (MDA-MB-231 [18]): 6 µM
IC50 (MDA-MB-436 [19]): 14 µM
IC50 (HCT-116 [4]): 11 µM
IC50 (HCT-116 [5]): 0.26 µM
IC50 (HT-29 [6]): 0.21 µM
IC50 (HT-29 [7]): 0.25 µM
Activity (HCT-116 [20]): Active
Cmax [21]: 7700 ng/mL
bioavailability [22]: 47%
half-life [23]: > 2 h
AUC [24]: 10100 ng·h/mL
t1/2 [25]: 0.917 h
MRT [26]: 5.1 h
Vdss [27]: 10.1 L/kg
MTD [28]: > 150 mg/kg
MTD [29]: 10 mg/kg
Activity (MCF7 [30]): Active
Activity [31]: Non-Toxic
Activity (MCF7 [32]): Active
remaining at 2 h [11]: 93%
Activity (HCT-116 [33]): Active

SMILES: O=C1Nc2c(C(F)(F)F)cccc2C1(c1ccc(O)cc1)N1CCC(F)(F)CC1 (configuration not stated)
IC50 (MCF7 [1]): 0.035 µM

SMILES: Cc1cc(C2(c3ccc(OC(F)(F)F)cc3)C(=O)Nc3c(C(F)(F)F)cccc32)ccc1O (configuration not stated)
IC50 (MCF7 [1]): > 1 µM

SMILES: CC(C)c1cc(C2(c3ccc(OC(F)(F)F)cc3)C(=O)Nc3c(C(F)(F)F)cccc32)cc(C(C)C)c1O (configuration not stated)
IC50 (MCF7 [1]): > 1 µM

SMILES: Cc1cc(C2(c3ccc(OC(F)(F)F)cc3)C(=O)Nc3c(C(F)(F)F)cccc32)cc(C)c1O (configuration not stated)
IC50 (MCF7 [1]): > 1 µM

SMILES: O=C1Nc2c(C(F)(F)F)cccc2C1(c1ccc(OC(F)(F)F)cc1)c1cc(F)c(O)c(F)c1 (configuration not stated)
IC50 (MCF7 [1]): > 1 µM

Further lines, with some results ahead:

IC50 (MCF7 [1]): 0.017 µM
IC50 (MDA-MB-231 [2]): 51 µM
IC50 (MDA-MB-231 [3]): 32 µM
IC50 (HCT-116 [4]): 45 µM
IC50 (HCT-116 [5]): 20 µM
IC50 (HT-29 [6]): 35 µM
IC50 (HT-29 [7]): 30 µM
remaining at 2 h [11]: 20%
SMILES: O=C1Nc2c(C(F)(F)F)cccc2[C@@]1(c1ccc(O)cc1)N1CCC(F)(F)C1
Ratio IC50 [8]: 1500
Ratio IC50 [9]: 900
Ratio IC50 [10]: 1400

IC50 (MCF7 [1]): 0.005 µM
IC50 (MCF7 [12]): 0.004 µM
IC50 (MDA-MB-231 [2]): 22 µM
IC50 (MDA-MB-231 [3]): 14 µM
IC50 (HCT-116 [4]): 24 µM
IC50 (HCT-116 [5]): 15 µM
IC50 (HT-29 [6]): 25 µM
IC50 (HT-29 [7]): 15 µM
remaining at 2 h [11]: 27%
SMILES: O=C1Nc2c(C(F)(F)F)cccc2[C@@]1(c1ccc(O)cc1)N1CC(F)(F)C(F)(F)C1
Ratio IC50 [8]: 3500
Ratio IC50 [9]: 3800
Ratio IC50 [10]: 3800

IC50 (MCF7 [1]): > 1 µM
SMILES: O=C1Nc2c(C(F)(F)F)cccc2C1(c1ccc(O)cc1)N1CCCCCC1 (configuration not stated)

IC50 (MCF7 [12]): 0.117 µM
SMILES: O=C1Nc2c(C(F)(F)F)cccc2[C@@]1(c1ccc(O)cc1)N1CC(F)(F)C1

IC50 (MCF7 [1]): > 1 µM
IC50 (MCF7 [12]): 0.147 µM
SMILES: O=C1Nc2c(C(F)(F)F)cccc2[C@@]1(c1ccc(O)cc1)N1CCC(F)CC1

— ChEMBL document CHEMBL5154712, “Activators of the Anticipatory Unfolded Protein Response with Enhanced Selectivity for Estrogen Receptor Positive Breast Cancer” (J Med Chem, 2022)
